Results: patent US7741327B2 (Hoffmann-La Roche Inc., priority 2008, dated 2010)

Target: T1, Recombinant human liver GK1 (GST-GK) (Homo sapiens, UniProt P35557)
T1 construct: made in house; host or cells: E. coli
T1 sequence (P35557 1-466 isoform P35557-2): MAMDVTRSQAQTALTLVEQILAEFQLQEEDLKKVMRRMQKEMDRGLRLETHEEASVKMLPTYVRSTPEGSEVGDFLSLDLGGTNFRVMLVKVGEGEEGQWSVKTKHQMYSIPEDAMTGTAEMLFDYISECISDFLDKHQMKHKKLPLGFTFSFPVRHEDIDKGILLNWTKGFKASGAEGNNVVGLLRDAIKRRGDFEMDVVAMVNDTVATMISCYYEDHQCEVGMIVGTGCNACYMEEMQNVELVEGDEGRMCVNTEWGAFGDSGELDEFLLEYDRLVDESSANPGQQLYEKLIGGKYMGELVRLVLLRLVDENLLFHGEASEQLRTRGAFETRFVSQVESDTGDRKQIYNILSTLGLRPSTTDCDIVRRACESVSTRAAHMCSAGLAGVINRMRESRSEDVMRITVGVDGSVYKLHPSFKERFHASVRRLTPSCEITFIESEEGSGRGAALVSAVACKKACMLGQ
Test: In vitro glucokinase activity (G6PDH-coupled NADH assay)
Format: biochemical
Settings: for SC1.5 (concentration of activator that produced a 50% increase in the activity of GK): 30° C., 5 mM D-glucose, 10% DMSO
Outline: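 Activation measured as the rate of OD340 rise from G6PDH-coupled NADH production, relative to 10% DMSO control, reported as SC1.5 (concentration for 50% activity increase). Conditions: 30° C, pH 7.1 Hepes, 5 mM glucose, 1 mM ATP, purified recombinant GST-human GK1, compound preincubated 10 min before enzyme addition.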

SC1.5 (concentration of activator that produced a 50% increase in the activity of GK) [µM] | fold act. @ 30 μM (at 30 μM test compound) [fold] | SMILES
0.63 | – | CC(C)C[C@@H](C(=O)Nc1ncc(Cl)s1)N1CC(Oc2ccccc2Cl)=CC1=O [Example 190, (S)-2-[4-(2-chloro-phenoxy)-2-oxo-2,5-dihydro-pyrrol-1-yl]-4-methyl-pentanoic acid (5-chloro-thiazol-2-yl)-amide]
0.138 | – | CC(C)C[C@@H](C(=O)Nc1ccn(C[C@H](O)CO)n1)N1CC(Oc2ccccc2Cl)=CC1=O [Example 175, (S)-2-[4-(2-Chloro-phenoxy)-2-oxo-2,5-dihydro-pyrrol-1-yl]-4-methyl-pentanoic acid [1-((S)-2,3-dihyrxy-propyl)-1H-pyrazol-3-yl]-amide]
0.024 | – | CCOc1ccc(F)c(OC2=CC(=O)N([C@@H](CC(C)C)C(=O)Nc3ccn(CC(C)(C)O)n3)C2)c1F [Example 260, (S)-2-[4-(3-Ethoxy-2,6-difluoro-phenoxy)-2-oxo-2,5-dihydro-pyrrol-1-yl]-4-methyl-pentanoic acid [1-(2-hydroxy-2-methyl-propyl)-1H-pyrazol-3-yl]-amide]
0.252 | – | Cc1ccccc1OC1=CC(=O)N([C@@H](CC(C)C)C(=O)Nc2ccn(CC(C)(C)O)n2)C1 [Example 125, (S)-4-Methyl-2-(2-oxo-4-o-tolyloxy-2,5-dihydro-pyrrol-1-yl)-pentanoic acid [1-(2-hydroxy-2-methyl-propyl)-1H-pyrazol-3-yl]-amide]
0.076 | – | CC(C)(O)Cn1ccc(NC(=O)[C@H](CC2CCCCC2)N2CC(Oc3cccc(C(F)(F)F)c3)=CC2=O)n1 [Example 209, (S)-3-cyclohexyl-N-[1-(2-hydroxy-2-methyl-propyl)-1H-pyrazol-3-yl]-2-[2-oxo-4-(3-trifluoromethyl-phenoxy)-2,5-dihydro-pyrrol-1-yl]-propionamide]
0.37 | – | CC(C)C[C@@H](C(=O)Nc1ccn(C[C@@H](O)CO)n1)N1CC(Oc2cccc(N(C)C)c2F)=CC1=O.Cl [Example 140, (S)-2-[4-(3-Dimethylamino-2-fluoro-phenoxy)-2-oxo-2,5-dihydro-pyrrol-1-yl]-4-methyl-pentanoic acid [1-((R)-2,3-dihydroxy-propyl)-1H-pyrazol-3-yl]-amide hydrochloride]
6.017 | – | CC[C@H](C)C[C@H](C(=O)Nc1ccn(C[C@@H](O)CO)n1)N1CC(Oc2ccccc2Cl)=CC1=O (single isomer, unassigned) [Example 250]
0.566 | – | CCOc1ccc(F)c(OC2=CC(=O)N([C@@H](CC(C)C)C(=O)Nc3cnc([C@H]4COC(C)(C)O4)cn3)C2)c1F [Example 152, (S)-2-[4-(3-Ethoxy-2,6-difluoro-phenoxy)-2-oxo-2,5-dihydro-pyrrol-1-yl]-4-methyl-pentanoic acid [5-((S)-2,2-dimethyl-[1,3]dioxolan-4-yl)-pyrazin-2-yl]-amide]

The next lines start with the molecule.

SMILES | SC1.5 (concentration of activator that produced a 50% increase in the activity of GK) [µM] | fold act. @ 30 μM (at 30 μM test compound) [fold]
CC(C)(O)Cn1ccc(NC(=O)[C@H](CC2CCCCC2)N2CC(Oc3c(F)ccc(Cl)c3F)=CC2=O)n1 [Example 72, (S)-2-[4-(3-Chloro-2,6-difluoro-phenoxy)-2-oxo-2,5-dihydro-pyrrol-1-yl]-3-cyclohexyl-N-[1-(2-hydroxy-2-methyl-propyl)-1H-pyrazol-3-yl]-propionamide] | 0.024 | –
O=C(Nc1ccn(C[C@H](O)CO)n1)[C@H](CC1CCCCC1)N1CC(Oc2c(F)cccc2F)=CC1=O [Example 37, (S)-3-Cyclohexyl-2-[4-(2,6-difluoro-phenoxy)-2-oxo-2,5-dihydro-pyrrol-1-yl]-N-[1-((S)-2,3-dihydroxy-propyl)-1H-pyrazol-3-yl]-propionamide] | 0.036 | –
CC(C)OC1=CC(=O)N([C@@H](CC2CCCC2)C(=O)Nc2cnccn2)C1 [Example 23, (S)-3-Cyclopentyl-N-(pyrazin-2-yl)-2-(4-isopropoxy-2-oxo-2,5-dihydro-pyrrol-1-yl)-propionamide] | 5.216 | –
COCCn1ccc(NC(=O)[C@H](CC2CCCCC2)N2CC(Oc3ccccc3C(F)(F)F)=CC2=O)n1.Cl [Example 91, (S)-3-Cyclohexyl-N-[1-(2-methoxy-ethyl)-1H-pyrazol-3-yl]-2-[2-oxo-4-(2-trifluoromethyl-phenoxy)-2,5-dihydro-pyrrol-1-yl]-propionamide Hydrochloride] | 0.039 | –
CC(C)C[C@@H](C(=O)Nc1ccn(C[C@@H](O)CO)n1)N1CC(Oc2cccc3c2CCCC3)=CC1=O [Example 98, (S)-4-Methyl-2-[2-oxo-4-(5,6,7,8-tetrahydro-naphthalen-1-yloxy)-2,5-dihydro-pyrrol-1-yl]-pentanoic acid [1-((R)-2,3-dihydroxy-propyl)-1H-pyrazol-3-yl]-amide] | 0.212 | –
Cc1ccccc1OC1=CC(=O)N([C@@H](CC(C)C)C(=O)Nc2ccn(C[C@@H]3COC(C)(C)O3)n2)C1 [Example 123, (S)-4-Methyl-2-(2-oxo-4-o-tolyloxy-2,5-dihydro-pyrrol-1-yl)-pentanoic acid [1-((R)-2,2-dimethyl-[1,3]dioxolan-4-yl-methyl)-1H-pyrazol-3-yl]-amide] | 1.294 | –
COc1ccc(F)c(OC2=CC(=O)N([C@@H](CC(C)C)C(=O)Nc3ccn(C[C@@H]4COC(C)(C)O4)n3)C2)c1F [Example 118, (S)-2-[4-(2,6-Difluoro-3-methoxy-phenoxy)-2-oxo-2,5-dihydro-pyrrol-1-yl]-4-methyl-pentanoic acid [1-((R)-2,2-dimethyl-[1,3]dioxolan-4-yl-methyl)-1H-pyrazol-3-yl]-amide] | 0.256 | –
CCOc1ccccc1OC1=CC(=O)N([C@@H](CC(C)C)C(=O)Nc2ccn(C[C@@H]3COC(C)(C)O3)n2)C1 [Example 83, (S)-2-[4-(2-Ethoxy-phenoxy)-2-oxo-2,5-dihydro-pyrrol-1-yl]-4-methyl-pentanoic acid [1-((R)-2,2-dimethyl-[1,3]dioxolan-4-yl-methyl)-1H-pyrazol-3-yl]-amide] | 8.055 | –
CCOc1ccccc1OC1=CC(=O)N([C@@H](CC(C)C)C(=O)Nc2ccn(C)n2)C1.Cl [Example 82, (S)-2-[4-(2-Ethoxy-phenoxy)-2-oxo-2,5-dihydro-pyrrol-1-yl]-4-methyl-pentanoic acid (1-methyl-1H-pyrazol-3-yl)-amide Hydrochloride] | 2.591 | –
COc1cccc(OC2=CC(=O)N([C@@H](CC3CCCC3)C(=O)Nc3ccn(C[C@@H](O)CO)n3)C2)c1Cl [Example 55, (S)-2-[4-(2-Chloro-3-methoxy-phenoxy)-2-oxo-2,5-dihydro-pyrrol-1-yl]-3-cyclopentyl-N-[1-((R)-2,3-dihydroxy-propyl)-1H-pyrazol-3-yl]-propionamide] | 0.007 | –
Cl.Cn1ccc(NC(=O)[C@H](CC2CCCCC2)N2CC(Oc3ccccc3C(F)(F)F)=CC2=O)n1 [Example 90, (S)-3-Cyclohexyl-N-(1-methyl-1H-pyrazol-3-yl)-2-[2-oxo-4-(2-trifluoromethyl-phenoxy)-2,5-dihydro-pyrrol-1-yl]-propionamide Hydrochloride] | 0.088 | –
COC1=CC(=O)N([C@@H](CC2CCCC2)C(=O)Nc2cnccn2)C1 [Example 9, (S)-3-Cyclopentyl-2-(4-methoxy-2-oxo-2,5-dihydro-pyrrol-1-yl)-N-pyrazin-2-yl-propionamide] | 6.54 | –
CC(C)(O)Cn1ccc(NC(=O)C(Cc2c(F)cccc2F)N2CC(Oc3c(F)cccc3F)=CC2=O)n1 (stereo not drawn) [Example 59, 2-[4-(2,6-Difluoro-phenoxy)-2-oxo-2,5-dihydro-pyrrol-1-yl]-3-(2,6-difluoro-phenyl)-N-[1-(2-hydroxy-2-methyl-propyl)-1-H-pyrazol-3-yl]-propionamide] | 1.082 | –
COC1=CC(=O)N([C@@H](CC2CCCC2)C(=O)Nc2nc3ccccc3s2)C1 [Example 3, (S)-N-Benzothiazol-2-yl-3-cyclopentyl-2-(4-methoxy-2-oxo-2,5-dihydro-pyrrol-1-yl)-propionamide] | > 30 | 1.3
CC(C)C[C@@H](C(=O)Nc1ccn(C[C@@H](O)CO)n1)N1CC(Oc2cccc(C(F)(F)F)c2)=CC1=O [Example 96, (S)-4-Methyl-2-[2-oxo-4-(3-trifluoromethyl-phenoxy)-2,5-dihydro-pyrrol-1-yl]-pentanoic acid [1-((R)-2,3-dihydroxy-propyl)-1H-pyrazol-3-yl]-amide] | 0.97 | –
